# Patent US11192890B2, “FGFR kinase inhibitors and pharmaceutical uses” (AUCKLAND UNISERVICES LIMITED, priority 2017, dated 2021)
# Like-named read-outs stand apart in the source and are kept apart here.
# Assays:
# [1] = system: FGFR1 in H520 cells (phospho-ERK1/2); assay: Drug washout Western blot assay, H520 cells; assay type: cell-based; conditions: H520, 2 hours exposure; for reversible or irreversible inhibition of FGFR1 in cells: 100, 300 and 600 nM, with and without washout
# SUM52 cells = assay: Oxic and anoxic anti-proliferative activity of the prodrugs
# SW780 cells = assay: as above; assay type: cell-based; conditions: for IC50: Homo sapiens, SW780, oxic conditions, read-out: Cellular Anti-proliferative IC50, SW780, Oxic
# [2] = Pulse radiolysis of prodrugs; assay type: physicochemical
# H520 cells = assay: Oxic and anoxic anti-proliferative activity of the prodrugs
# [3] = system: SNU-16 (FGFR2-amplified) gastric cancer xenograft; assay: Anti-tumour activity, SNU-16 xenograft; assay type: in vivo, NIH-III nude mice; conditions: 80 mg/kg, q7dx2, IP; to day 11
# Procedure: Specific pathogen-free homozygous female NIH-III nude mice (Charles River Laboratories, Wilmington, Mass.) were inoculated subcutaneously with a single cell suspension of SW780 cells (8×10^6 cells/100 μL with Matrigel; right flank) or SNU-16 cells (10×10^6 cells/100 μL; right flank). […] Test compounds of the present invention were prepared in Water for Injection (WFI). Mice were dosed by intraperitoneal injection (0.01-0.03 ml/g) using the stated schedules and dose levels. […] Tumour size and body weights were measured at regular intervals. Tumour volume was calculated as n (length×width^2)/6.
# [4] = system: 4T1 murine syngeneic breast cancer cells; assay: Anti-tumour activity, murine 4T1 model; assay type: in vivo, BALB/c mice; conditions: 70 mg/kg IP, controls 16 days
# Procedure: Studies in BALB/c mice: 4T1 murine syngeneic breast cancer cells (7.5×10^6 cells/mouse) were implanted into the subcutaneous space, in the right flank of immunocompetent BALB/c female mice. Treatment with Compound 204 started at the stated day post cell-implant. Compound 204 was administered intraperitoneally at the stated dose and schedule in Water for Injection. Tumour measurements and body weight were recorded every day, until all tumours increased their volume 4-fold (RTV^4) from day0 of experimental assignment.
# [5] = Murine plasma pharmacokinetics assay; assay type: in vivo, NIH-III nude mice; conditions: for AUC(0-inf) / half-life / Cmax / Tmax / AUC(0-t): female, NIH-III nude, mouse, ip, plasma; for AUC(0-t): observed, read-out: AUC0-24
# Procedure: Compound 204 was formulated in water for injection at 2 or 4 mg/ml to be administered by intraperitoneal injection at 0.02 ml/g body weight to achieve a 40 or 80 mg/kg dose. Specific pathogen-free female NIH-III mice (Crl:NIH Lyst^bg Foxn1^nu Btk^xid) were obtained from the Vernon Jansen Unit (VJU), The University of Auckland. To minimize exogenous infection, mice were maintained in individually ventilated cages at 6 mice per cage (Sealsafe Plus Mouse AERO, Tecniplast) and handled in accordance with the Guide for the Care and Use of Laboratory Animals, The University of Auckland. Mice had access to water and food ad libitum. Following dosing, at the specified time points (0.5, 1, 2, 4, 6 and 24 hours, n=3 per time point) mice were anaesthetised (isoflurane inhalation) and blood collected through cardiac puncture. Mice were subsequently culled via cervical dislocation whilst anaesthetized. Blood was collected in ice cold tubes (BD Microtainer® containing K2EDTA) and centrifuged (7 minutes at 6,500 rpm) to separate the plasma fraction. Plasma samples were stored at −80° C. until analysis. Control mice were injected with vehicle only and plasma collected as described. Prior to analysis by LC-MS/MS, calibration standards were prepared in control mouse plasma with a synthetic standard of Compound 204. Plasma samples expected to be outside the range of these standards were diluted in control mouse plasma. Standards and samples were mixed with 3 volumes of ice-cold acetonitrile containing internal standard (2 uL) and then centrifuged at 13000 rpm for 10 minutes at 4° C. The resulting supernatant was diluted in 2 volumes of 0.01% formic acid in water and 10 uL injected onto the LC-MS/MS system using an established quantitative analysis method. Pharmacokinetic parameters resulting from model fit of Compound 204 plasma concentration-time data were then derived where Tmax=time at maximum concentration, Tmax-obs=time at maximum observed concentration, Cmax-obs=maximum concentration observed, Cmax=maximum concentration determined by model, T1/2=half-life of Compound 204 in plasma during elimination phase, AUC0-24=observed area under the mean concentration-time curve, AUC0-inf=area under the concentration-time curve of the model fit.
# [6] = system: SW780 (FGFR3-amplified bladder cancer) xenograft; assay: Anti-tumour activity, SW780 xenograft; assay type: in vivo, NIH-III nude mice; conditions: q3dx4, IP
# Procedure: Specific pathogen-free homozygous female NIH-III nude mice (Charles River Laboratories, Wilmington, Mass.) were inoculated subcutaneously with a single cell suspension of SW780 cells (8×10^6 cells/100 μL with Matrigel; right flank) or SNU-16 cells (10×10^6 cells/100 μL; right flank). When tumour xenografts were established (typically 7-14 days for SW780 and 21-28 days for SNU-16) mice were randomized to treatment groups. Test compounds of the present invention were prepared in Water for Injection (WFI). Mice were dosed by intraperitoneal injection (0.01-0.03 ml/g) using the stated schedules and dose levels. […] Tumour size and body weights were measured at regular intervals. Tumour volume was calculated as […] (length×width^2)/6.
# [7] = system: SiHa xenograft (tumour hypoxia); assay: EF5 immunostaining and MALDI imaging mass spectrometry assay; assay type: in vivo, NIH-III nude mice; conditions: 86 mg/kg IP, tumours collected after 24 hours; EF5 60 mg/kg
# Procedure: SiHa cervical tumour cells were implanted into the flanks of female NIH-III mice to form subcutaneous xenografts. […] Vehicle and drug-treated SiHa tumours were sectioned at 12 um and collected by melting. Five serial sections were collected from each sample such that sections 1, 3 and 5 were mounted on a standard glass slide for optical microscopy, while sections 2 and 4 were mounted on ITO coated glass slides for MALDI imaging. Slides were stored at −80° C. until required.
# Imaging mass spectrometry was performed at 30 um spatial resolution using a MALDI FT-ICR mass spectrometer (Bruker Solarix-XR 7T) operating in positive ion mode. […] They were washed in dH2O for 5 minutes, in Tris-Buffered saline (TBS) for 10 minutes and blocked with 10% goat serum in TBS and 1% Tween-20, for 1 h, at room temperature. Sections were then incubated with Alexa488-ELK3-51 antibody (Hypoxia-Imaging.org, University of Pennsylvania, US) that recognises EF5 adducts in hypoxic cells and counterstained with DAPI.
# [8] = read-out: Cellular Anti-proliferative IC50, SUM52, Oxic, oxic conditions
# [9] = read-out: Cellular Anti-proliferative IC50, H520, Oxic, oxic conditions
compound,measurement,setting,value
"CNc1ncc2c(n1)N([C@H]1CCN(C(=O)/C=C/C[N+](C)(C)Cc3c([N+](=O)[O-])ncn3C)C1)C(=O)N(c1c(Cl)c(OC)cc(OC)c1Cl)C2.[Br-] [Compound 200, (S,E)-4-(3-(3-(2,6-dichloro-3,5-dimethoxyphenyl)-7-(methylamino)-2-oxo-3,4-dihydropyrimido[4,5-d]pyrimidin-1(2H)-yl)pyrrolidin-1-yl)-N,N-dimethyl-N-((1-methyl-4-nitro-1H-imidazol-5-yl)methyl)-4-oxobut-2-en-1-aminium bromide]",melting point,,195 to 198 °C
same,reversible or irreversible inhibition of FGFR1 in cells,[1],reversible inhibitor
same,concentration required to suppress FGFR1 signalling through phospho-ERK1/2,"[1]; tested at 100, 300 and 600 nM",300 nM
same,IC50,SUM52 cells; [8],0.229 µM
same,IC50,SW780 cells,2.64 µM
same,first order rate of fragmentation kfrag,[2],32 s⁻¹
same,IC50,H520 cells; [9],3.67 µM
"COc1cc(OC)c(Cl)c(N2Cc3cnc(NC(C)C)nc3N(C3CCN(C(=O)/C=C/C[N+](C)(C)Cc4c([N+](=O)[O-])ncn4C)CC3)C2=O)c1Cl.[Br-] [Compound 202, (E)-4-(4-(3-(2,6-dichloro-3,5-dimethoxyphenyl)-7-(isopropylamino)-2-oxo-3,4-dihydropyrimido[4,5-d]pyrimidin-1(2H)-yl)piperidin-1-yl)-N,N-dimethyl-N-((1-methyl-4-nitro-1H-imidazol-5-yl)methyl)-4-oxobut-2-en-1-aminium bromide]",melting point,,171 to 174 °C
same,reversible or irreversible inhibition of FGFR1 in cells,[1],reversible inhibitors
same,IC50,SUM52 cells; [8],0.737 µM
same,IC50,SW780 cells,2.12 µM
same,first order rate of fragmentation kfrag,[2],26 s⁻¹
same,IC50,H520 cells; [9],1.73 µM
"COc1cc(OC)c(Cl)c(N2Cc3cnc(Nc4ccccc4)nc3N(C3CCN(C(=O)/C=C/C[N+](C)(C)Cc4c([N+](=O)[O-])ncn4C)CC3)C2=O)c1Cl.[Br-] [Compound 204, (E)-4-(4-(3-(2,6-dichloro-3,5-dimethoxyphenyl)-2-oxo-7-(phenylamino)-3,4-dihydropyrimido[4,5-d]pyrimidin-1(2H)-yl)piperidin-1-yl)-N,N-dimethyl-N-((1-methyl-4-nitro-1H-imidazol-5-yl)methyl)-4-oxobut-2-en-1-aminium bromide]",tumour response,[3],regressed following each drug administration
same,fold less potent than the inhibitor compound 112 at inhibiting proliferation (deactivation),"SUM52 cells; SUM52, oxic",296 fold
same,"Hypoxic Cytotoxicity Ratio (HCR), SUM52",SUM52 cells; ratio of oxic and anoxic IC50,12
same,IC50,"SUM52 cells; read-out: Cellular Anti-proliferative IC50, SUM52, Anoxic, 4 hours of anoxia, remainder of assay oxic",0.017 µM
same,IC50,SUM52 cells; [8],0.207 µM
same,median survival time,[4]; q2dx3,18 days
same,median survival time,[4]; q3dx3,20 days
same,median survival time,[4]; q4dx3,21 days
same,median survival time,[4]; q5dx3,22 days
same,change of maximum plasma concentration and area under the plasma concentration-time curve with increase in dose,[5]; 40 and 80 mg/kg intraperitoneal,linear increase
same,time to maximum plasma concentration,[5]; doses of 40 and 80 mg/kg intraperitoneal,2 to 3 h
same,AUC(0-inf),"[5]; 40 mg/kg intraperitoneal, model fit",262 ± 10.8 µM·h
same,AUC(0-inf),"[5]; 80 mg/kg intraperitoneal, model fit",606 ± 103 µM·h
same,half-life,"[5]; 40 mg/kg, 40 mg/kg intraperitoneal, elimination phase, read-out: T1/2 (converted)",1.21 ± 0.06 h
same,Cmax,"[5]; 40 mg/kg, 40 mg/kg intraperitoneal, model fit, read-out: Cmax",54.9 ± 2.38 µM
same,Tmax,"[5]; 40 mg/kg, 40 mg/kg intraperitoneal, model fit, read-out: Tmax",1.75 ± 0.06 h
same,AUC(0-t),"[5]; 40 mg/kg, 40 mg/kg intraperitoneal",382 µM·h
same,Cmax,"[5]; 40 mg/kg, 40 mg/kg intraperitoneal, read-out: Cmax-obs",51.8 ± 7.46 µM
same,Tmax,"[5]; 40 mg/kg, 40 mg/kg intraperitoneal, read-out: Tmax-obs",2 h
same,half-life,"[5]; 80 mg/kg, 80 mg/kg intraperitoneal, elimination phase, read-out: T1/2 (converted)",1.79 ± 0.36 h
same,Cmax,"[5]; 80 mg/kg, 80 mg/kg intraperitoneal, model fit, read-out: Cmax",86.4 ± 10.4 µM
same,Tmax,"[5]; 80 mg/kg, 80 mg/kg intraperitoneal, model fit, read-out: Tmax",2.58 ± 0.36 h
same,AUC(0-t),"[5]; 80 mg/kg, 80 mg/kg intraperitoneal",~900 µM·h
same,Cmax,"[5]; 80 mg/kg, 80 mg/kg intraperitoneal, read-out: Cmax-obs",77.3 ± 14.7 µM
same,Tmax,"[5]; 80 mg/kg, 80 mg/kg intraperitoneal, read-out: Tmax-obs",4 h
same,half-life,"[5]; 80 mg/kg, doses of 40 and 80 mg/kg intraperitoneal, read-out: plasma half-life",1.2 to 1.8 h
same,time for tumours to reach RTV4,[6]; 100 umol/kg dose,approximately 26 days
same,tumour response at the higher doses tested,[6]; 30 to 133 umol/kg/dose,regressed the tumours
same,IC50,SW780 cells,1.39 µM
same,fold less potent than the inhibitor compound 112 at inhibiting proliferation (deactivation),"SW780 cells; SW780, oxic",143 fold
same,metabolism of prodrug and release of FGFR inhibitor compound 112 in tumours,[7],hypoxia-selective metabolism
same,first order rate of fragmentation kfrag,[2],30 s⁻¹
same,fold less potent than the inhibitor compound 112 at inhibiting proliferation (deactivation),"H520 cells; H520, oxic",307 fold
same,"Hypoxic Cytotoxicity Ratio (HCR), H520",H520 cells; ratio of oxic and anoxic IC50,27
same,IC50,"H520 cells; read-out: Cellular Anti-proliferative IC50, H520, Anoxic, 4 hours of anoxia, remainder of assay oxic",0.047 µM
same,IC50,H520 cells; [9],1.26 µM
